From patent US12617797B2, “Substituted pyrazolo [1,5-a]pyrimidines having multimodal activity against pain” (ESTEVE PHARMACEUTICALS, S.A., priority 2020, dated 2026)

Columns and labels:
[1] = biological target: Human α2δ-1 subunit of Cav2.2 calcium channel (Homo sapiens, UniProt P54289); assay: Human α2δ-1 subunit of Cav2.2 calcium channel assay ([3H]-gabapentin binding); details: binding to the α2δ-1 subunit of voltage-gated calcium channels expressed as Ki; + also covers inhibition between 1% and 50%
Method: Biological Activity Pharmacological Study Human α2δ-1 Subunit of Cav2.2 Calcium Channel Assay
Human α2δ-1 enriched membranes (2.5 μg) were incubated with 15 nM of radiolabeled [^3H]-Gabapentin in assay buffer containing Hepes-KOH 10 mM, pH 7.4. NSB (non specific binding) was measured by adding 10 μM pregabalin. The binding of the test compound was measured at either one concentration (% inhibition at 1 or 10 μM) or five different concentrations to determine affinity values (Ki). After 60 min incubation at 27° C., binding reaction was terminated by filtering through Multiscreen GF/C (Millipore) presoaked in 0.5% polyethyleneimine in Vacuum Manifold Station, followed by 3 washes with ice-cold filtration buffer containing 50 mM Tris-HCl, pH 7.4. Filter plates were dried at 60° C. for 1 h and 30 μL of scintillation cocktail were added to each well before radioactivity reading. Readings were performed in a Trilux 1450 Microbeta radioactive counter (Perkin Elmer).

Human σ1 receptor = biological target: T1, Human σ1 receptor (Homo sapiens, UniProt Q99720); assay: Human σ1 receptor radioligand assay ([3H](+)-pentazocine binding, transfected HEK-293 membranes); details: binding to σ1 receptor expressed as Ki; + also covers inhibition between 1% and 50%; read-out: σ-1 binding
T1 construct: expressed in transfected cells; host or cells: HEK-293
Method: Human σ1 Receptor Radioligand Assay
Transfected HEK-293 membranes (7 μg) were incubated with 5 nM of [^3H](+)-pentazocine in assay buffer containing Tris-HCl 50 mM at pH 8. NBS (non-specific binding) was measured by adding 10 μM haloperidol. The binding of the test compound was measured at either one concentration (% inhibition at 1 or 10 μM) or five different concentrations to determine affinity values (Ki). Plates were incubated at 37° C. for 120 minutes. After the incubation period, the reaction mix was then transferred to MultiScreen HTS, FC plates (Millipore), filtered and plates were washed 3 times with ice-cold 10 mM Tris-HCL (pH7.4). Filters were dried and counted at approximately 40% efficiency in a MicroBeta scintillation counter (Perkin-Elmer) using EcoScint liquid scintillation cocktail.

T1 sequence (Q99720 whole entry): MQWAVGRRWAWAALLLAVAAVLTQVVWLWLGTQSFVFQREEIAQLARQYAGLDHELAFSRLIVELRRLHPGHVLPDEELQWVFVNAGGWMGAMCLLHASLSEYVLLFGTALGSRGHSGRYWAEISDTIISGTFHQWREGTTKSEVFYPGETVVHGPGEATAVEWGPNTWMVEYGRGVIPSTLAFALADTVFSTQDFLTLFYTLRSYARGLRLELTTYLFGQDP
Chain of Human α2δ-1 subunit of Cav2.2 calcium channel (P54289 25-1103): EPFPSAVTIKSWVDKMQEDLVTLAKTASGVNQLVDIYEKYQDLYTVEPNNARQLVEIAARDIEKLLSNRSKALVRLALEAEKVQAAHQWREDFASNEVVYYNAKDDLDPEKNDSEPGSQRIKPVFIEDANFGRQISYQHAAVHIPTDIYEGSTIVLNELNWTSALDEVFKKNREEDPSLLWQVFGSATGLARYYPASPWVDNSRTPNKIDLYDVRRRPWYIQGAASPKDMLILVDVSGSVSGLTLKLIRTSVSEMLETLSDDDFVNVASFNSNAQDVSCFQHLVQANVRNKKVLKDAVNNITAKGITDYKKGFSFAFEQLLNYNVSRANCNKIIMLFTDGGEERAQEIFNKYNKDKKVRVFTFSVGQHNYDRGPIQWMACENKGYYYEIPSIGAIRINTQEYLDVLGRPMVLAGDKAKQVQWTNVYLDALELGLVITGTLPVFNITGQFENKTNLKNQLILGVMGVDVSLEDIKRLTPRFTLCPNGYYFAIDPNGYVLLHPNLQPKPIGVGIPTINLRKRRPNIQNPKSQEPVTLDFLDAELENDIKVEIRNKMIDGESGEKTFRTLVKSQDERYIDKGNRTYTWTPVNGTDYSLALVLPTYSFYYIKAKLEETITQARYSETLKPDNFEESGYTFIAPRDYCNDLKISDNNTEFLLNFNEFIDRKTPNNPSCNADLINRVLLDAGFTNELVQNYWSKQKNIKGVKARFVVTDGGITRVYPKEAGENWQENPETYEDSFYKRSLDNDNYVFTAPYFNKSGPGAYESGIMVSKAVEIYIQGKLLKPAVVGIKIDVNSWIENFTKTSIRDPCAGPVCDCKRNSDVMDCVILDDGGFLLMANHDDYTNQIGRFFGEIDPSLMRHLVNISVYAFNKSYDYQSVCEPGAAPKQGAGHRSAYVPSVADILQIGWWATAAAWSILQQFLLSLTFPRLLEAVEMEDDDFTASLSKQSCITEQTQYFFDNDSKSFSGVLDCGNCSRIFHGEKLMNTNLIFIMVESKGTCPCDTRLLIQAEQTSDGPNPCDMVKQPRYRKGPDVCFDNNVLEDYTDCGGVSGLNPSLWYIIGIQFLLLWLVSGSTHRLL

Ki [1]	Ki (Human σ1 receptor)	Compound
0.5 to 5 µM	> 1 µM	Cc1cnc2c(-c3ccncc3)c(C)nn2c1C1CCCN(Cc2ccccc2)C1 (centres unmarked) [Example 58, 7-(1-Benzylpiperidin-3-yl)-2,6-dimethyl-3-(pyridin-4-yl)pyrazolo[1,5-a]pyrimidine]
0.5 to 5 µM	> 1 µM	Cc1cc(C2CCCN(Cc3ccccc3)C2)n2nc(C)c(-c3ccncc3)c2n1 (centres unmarked) [Example 59, 7-(1-Benzylpiperidin-3-yl)-2,5-dimethyl-3-(pyridin-4-yl)pyrazolo[1,5-a]pyrimidine]
0.5 to 5 µM	> 1 µM	CCc1nn2c(C3CCCN(Cc4ccccc4)C3)ccnc2c1-c1ccncc1 (centres unmarked) [Example 60, 7-(1-Benzylpiperidin-3-yl)-2-ethyl-3-(pyridin-4-yl)pyrazolo[1,5-a]pyrimidine]
0.5 to 5 µM	> 1 µM	CNCc1cn(-c2cccc(-c3c(C)nn4c(C5CCCN(Cc6ccccc6)C5)ccnc34)c2)nn1 (centres unmarked) [Example 61, 1-(1-(3-(7-(1-Benzylpiperidin-3-yl)-2-methylpyrazolo[1,5-a]pyrimidin-3-yl)phenyl)-1H-1,2,3-triazol-4-yl)-N-methylmethanamine]
0.5 to 5 µM	> 1 µM	CNCc1cc(-c2c(C)nn3c(C4CCCN(Cc5ccccc5)C4)ccnc23)ccn1 (centres unmarked) [Example 62, 1-(4-(7-(1-Benzylpiperidin-3-yl)-2-methylpyrazolo[1,5-a]pyrimidin-3-yl)pyridin-2-yl)-N-methylmethanamine]
> 5 µM	> 1 µM	Cc1cc2nccc(C3CCCN(Cc4ccccc4F)C3)n2n1 (centres unmarked) [Example 63, 7-(1-(2-Fluorobenzyl)piperidin-3-yl)-2-methylpyrazolo[1,5-a]pyrimidine]
> 5 µM	< 0.5 µM	CCCCN1CCCC(c2ccnc3cc(C)nn23)C1 (centres unmarked) [Example 64, 7-(1-Butylpiperidin-3-yl)-2-methylpyrazolo[1,5-a]pyrimidine]
0.5 to 5 µM	> 1 µM	Cc1cc2nccc(C3CCCN(Cc4c(F)cccc4F)C3)n2n1 (centres unmarked) [Example 65, 7-(1-(2,6-Difluorobenzyl)piperidin-3-yl)-2-methylpyrazolo[1,5-a]pyrimidine]
> 5 µM	> 1 µM	Cc1cc2nccc(C3CCCN(Cc4ccccn4)C3)n2n1 (centres unmarked) [Example 66, 2-Methyl-7-(1-(pyridin-2-ylmethyl)piperidin-3-yl)pyrazolo[1,5-a]pyrimidine]
> 5 µM	> 1 µM	Cc1cc2nccc(C3CCCN(CCc4ccccc4)C3)n2n1 (centres unmarked) [Example 67, 2-Methyl-7-(1-phenethylpiperidin-3-yl)pyrazolo[1,5-a]pyrimidine]
> 5 µM	> 1 µM	Cc1cc2nccc(C3CCCN(Cc4cccc(O)c4)C3)n2n1 (centres unmarked) [Example 68, 3-((3-(2-Methylpyrazolo[1,5-a]pyrimidin-7-yl)piperidin-1-yl)methyl)phenol]
> 5 µM	> 1 µM	CCN1CCCC(c2ccnc3c(-c4ccncc4)c(C)nn23)C1 (centres unmarked) [Example 69, 7-(1-Ethylpiperidin-3-yl)-2-methyl-3-(pyridin-4-yl)pyrazolo[1,5-a]pyrimidine]
> 5 µM	> 1 µM	CCCN1CCCC(c2ccnc3c(-c4ccncc4)c(C)nn23)C1 (centres unmarked) [Example 70, 2-Methyl-7-(1-propylpiperidin-3-yl)-3-(pyridin-4-yl)pyrazolo[1,5-a]pyrimidine]
> 5 µM	> 1 µM	Cc1nn2c(C3CCCN(CC(C)C)C3)ccnc2c1-c1ccncc1 (centres unmarked) [Example 71, 7-(1-Isobutylpiperidin-3-yl)-2-methyl-3-(pyridin-4-yl)pyrazolo[1,5-a]pyrimidine]
0.5 to 5 µM	> 1 µM	Cc1nn2c(C3CCCN(Cc4ccccn4)C3)ccnc2c1-c1ccncc1 (centres unmarked) [Example 72, 2-Methyl-7-(1-(pyridin-2-ylmethyl)piperidin-3-yl)-3-(pyridin-4-yl)pyrazolo[1,5-a]pyrimidine]
> 5 µM	< 0.5 µM	Cc1cnc2c(-c3ccncc3)cnn2c1C1CCCN(CCc2ccccc2)C1 (centres unmarked) [Example 73, 6-Methyl-7-(1-phenethylpiperidin-3-yl)-3-(pyridin-4-yl)pyrazolo[1,5-a]pyrimidine]
0.5 to 5 µM	> 1 µM	Cc1cnc2c(-c3ccncc3)cnn2c1C1CCCN(Cc2ccccn2)C1 (centres unmarked) [Example 74, 6-Methyl-7-(1-(pyridin-2-ylmethyl)piperidin-3-yl)-3-(pyridin-4-yl)pyrazolo[1,5-a]pyrimidine]
0.5 to 5 µM	> 1 µM	Cc1ccccc1CN1CCCC(c2ccnc3c(-c4ccncc4)c(C)nn23)C1 (centres unmarked) [Example 75, 2-Methyl-7-(1-(2-methylbenzyl)piperidin-3-yl)-3-(pyridin-4-yl)pyrazolo[1,5-a]pyrimidine]
0.5 to 5 µM	0.5 to 1 µM	Cc1ccc(CN2CCCC(c3ccnc4c(-c5ccncc5)c(C)nn34)C2)cc1 (centres unmarked) [Example 76, 2-Methyl-7-(1-(4-methylbenzyl)piperidin-3-yl)-3-(pyridin-4-yl)pyrazolo[1,5-a]pyrimidine]
> 5 µM	> 1 µM	Cc1cccc(CN2CCCC(c3ccnc4c(-c5ccncc5)c(C)nn34)C2)c1 (centres unmarked) [Example 77, 2-Methyl-7-(1-(3-methylbenzyl)piperidin-3-yl)-3-(pyridin-4-yl)pyrazolo[1,5-a]pyrimidine]
> 5 µM	0.5 to 1 µM	c1ccc(CN2CCCC(c3ccnc4cc(N5CCCC5)nn34)C2)cc1 (centres unmarked) [Example 78, 7-(1-Benzylpiperidin-3-yl)-2-(pyrrolidin-1-yl)pyrazolo[1,5-a]pyrimidine]
> 5 µM	> 1 µM	CN(CCO)c1cc2nccc(C3CCCN(Cc4ccccc4)C3)n2n1 (centres unmarked) [Example 79, 2-((7-(1-Benzylpiperidin-3-yl)pyrazolo[1,5-a]pyrimidin-2-yl)(methyl)amino)ethanol]
0.5 to 5 µM	> 1 µM	CN(CCN)c1cc2nccc(C3CCCN(Cc4ccccc4)C3)n2n1 (centres unmarked) [Example 80, N^1-(7-(1-Benzylpiperidin-3-yl)pyrazolo[1,5-a]pyrimidin-2-yl)-N^1-methylethane-1,2-diamine]
0.5 to 5 µM	> 1 µM	CNCCN(C)c1cc2nccc(C3CCCN(Cc4ccccc4)C3)n2n1 (centres unmarked) [Example 81, N^1-(7-(1-Benzylpiperidin-3-yl)pyrazolo[1,5-a]pyrimidin-2-yl)-N^1,N^2-dimethylethane-1,2-diamine]
0.5 to 5 µM	> 1 µM	CNCCNc1cc2nccc(C3CCCN(Cc4ccccc4)C3)n2n1 (centres unmarked) [Example 83, N^1-(7-(1-Benzylpiperidin-3-yl)pyrazolo[1,5-a]pyrimidin-2-yl)-N^2-methylethane-1,2-diamine]
0.5 to 5 µM	> 1 µM	CN[C@@H]1CCN(c2cc3nccc([C@@H]4CCCN(Cc5ccccc5)C4)n3n2)C1 [Example 84, (R)-1-(7-((R)-1-Benzylpiperidin-3-yl)pyrazolo[1,5-a]pyrimidin-2-yl)-N-methylpyrrolidin-3-amine]
> 5 µM	> 1 µM	CN[C@H]1CCN(c2cc3nccc([C@H]4CCCN(Cc5ccccc5)C4)n3n2)C1 [Example 85, (S)-1-(7-((S)-1-Benzylpiperidin-3-yl)pyrazolo[1,5-a]pyrimidin-2-yl)-N-methylpyrrolidin-3-amine]

Compound	Ki [1]	Ki (Human σ1 receptor)
CN(c1cc2nccc(C3CCCN(Cc4ccccc4)C3)n2n1)C1CCNCC1 (centres unmarked) [Example 82, 7-(1-Benzylpiperidin-3-yl)-N-methyl-N-(piperidin-4-yl)pyrazolo[1,5-a]pyrimidin-2-amine]	0.5 to 5 µM	> 1 µM
